“Also recorded” adds a separate entry of the source.
What was measured:
Assay type in all cases: cell-based, human
NGFR-K562 = experiment: IFN-gamma ELISA, CAR T cells with NGFR-K562 target cells
Excerpt: (§1) MM.1S is a SLAMF7^+ multiple myeloma cell line that was obtained from American Type Culture Collection (ATCC). A549 is a BCMA-negative lung cancer cell line (ATCC). TC71 is a BCMA-negative sarcoma cell line. CCRF-CEM, 293T, and A549 are SLAMF7-negative cell lines (ATCC). COL0207, HepG2, U251, Panc10.05, and TC71 are […] that were kind gifts from Dr. Steven Rosenberg, National Cancer Institute. SLAMF7-K562 are K562 cells (ATCC) which were transduced with the gene for full-length SLAMF7. SLAMF7-RPMI are RPMI8226 cells (ATCC) which were transduced with the gene for full-length SLAMF7. NGFR-K562 are K562 cells which were transduced with the gene for low-affinity nerve growth factor (Kochenderfer et al., J. Immunother., 32(7): 689-702 (2009)). All of the human samples mentioned were obtained from patients enrolled in IRB-approved clinical trials at the National Cancer Institute.
(§2) One-hundred thousand SLAMF7^+ or SLAMF7-negative target cells were combined with 100,000 CAR-transduced T cells in duplicate wells of a 96 well round bottom plate in 200 µL of AIM V™ medium (Invitrogen) plus 5% human serum. The plates were incubated at 37° C. for 18-20 hours. Following the incubation, ELISAs (enzyme-linked immunosorbent assays) for IFNγ were performed by using standard methods.
(§3) The T cells columns indicate whether T cells were transduced with Luc90-CD828Z, Luc63-CD828Z, or were untransduced. The % CAR^+ in Table B-1 was determined by staining the T cells with Protein L. Except for the % CAR^+ column, all values are pg/mL of IFN-gamma. T cells that were either untransduced or transduced with one of the indicated CARs were cultured with target cells overnight and a standard IFN-gamma ELISA was performed on the culture supernatant.
(§4) All values are pg/mL of IFN-gamma. T cells that were either untransduced or transduced with one of the indicated CARs were cultured with target cells overnight, and a standard IFN-gamma ELISA was performed on the culture supernatant.
The values in the cells are pg/mL of IFN-gamma. T cells that were either untransduced or transduced with one of the indicated CARs were cultured with target cells overnight, and a standard IFN-gamma ELISA was performed on the culture supernatant. The concentrations of 0, 50, or 200 ng/mL at the top of each column indicates the concentration of soluble SLAMF7 added to all T cell plus target cell overnight cultures in that column. The soluble SLAMF7 was added at the beginning of the overnight culture.

SLAMF7-K562 = experiment: IFN-gamma ELISA, CAR T cells cultured overnight with SLAMF7-K562 target cells
Excerpt: as §1, §2, §3, §4

SLAMF7^+ MM.1S cells = experiment: Cytotoxicity assay (4 hours, relative to CCRF-CEM cells); conditions: MM.1S relative to control CCRF-CEM cells (FIG. 8A)
Experimental: Cytotoxicity assays were conducted as previously described (see Kochenderfer et al., J. Immunother., 32(7): 689-702 (2009)). Cytotoxicity was measured by comparing survival of SLAMF7^+ target cells relative to the survival of negative-control CCRF-CEM cells. Both of these cell types were combined in the same tubes with CAR-transduced T cells. CCRF-CEM negative control cells were labeled with the fluorescent dye 5-(and -6)-(((4-chloromethyl)benzoyl)amino) tetramethylrhodamine (CMTMR) (Invitrogen), and SLAMF7^+ target cells were labeled with CFSE. Cocultures were set up in sterile 5 mL test tubes (BD Biosciences) in duplicate at multiple T cell to target cell ratios. The target cells contained in the tubes were 50,000 SLAMF7^+ target cells along with 50,000 CCRF-CEM negative-control cells. The cultures were incubated for 4 hours at 37° C. Immediately after the incubation, 7AAD (7-amino-actinomycin D) (BD Biosciences) was added, and flow cytometry acquisition was performed. For each T cell plus target-cell culture, the percent survival of SLAMF7^+ target cells was determined by dividing the percent live SLAMF7^+ cells by the percent live CCRF-CEM negative control cells. The corrected percent survival of SLAMF7^+ target cells was calculated by dividing the percent survival of SLAMF7^+ target cells in each T cell plus target cell culture by the ratio of the percent live SLAMF7^+ target cells to percent live CCRF-CEM negative-control cells in tubes containing only SLAMF7^+ target cells and CCRF-CEM cells without effector T cells. This correction was necessary to account for variation in the starting cell numbers and for spontaneous target cell death. Cytotoxicity was calculated as follows: the percent cytotoxicity of […] target cells=100−corrected percent survival of SLAMF7^+ target cells.

IC9-expressing T cells = experiment: 6-hour and 48-hour post-rimiducid T cell death analysis; conditions: for elimination of CAR T cells when AP1903 was added to the T-cell cultures: per construct, in words
Experimental: On day 8 of culture, 1 million T cells from cultures that were either untransduced or transduced with one of the anti-SLAMF7 CARs cells were suspended at 1×10^6 T cells/mL in AIM V™ media (Invitrogen) plus 300 IU of interleukin-2. One million cells were added to each of 4 wells of a 12-well plate. A different concentration of AP1903 (MedChem Express, Princeton, N.J.) from was added to each well. AP1903 is also referred to as rimiducid. The concentrations of AP1903 evaluated were: 0, 1, 10, or 100 ng/mL.
Six hours and 48 hours after these cultures were set up, the cells were counted, washed, and stained with Protein L as described above. Next, the cells were washed twice with PBS, re-suspended in Annexin V binding buffer (BD Biosciences), and incubated with allophycocyanin-conjugated Annexin V (BD Biosciences) and 7AAD (BD Biosciences) for 15 minutes (mins) at room temp. The cells were immediately analyzed by flow cytometry.

IC9-Luc90-CD828Z: CAR plus suicide gene construct (SEQ ID NO: 31): IC9 suicide gene 5′ to the CAR, T2A, Luc90-CD828Z
IFN-gamma, NGFR-K562 (NGFR-K562; Table E): 30 pg/mL | IFN-gamma, SLAMF7-K562 (SLAMF7-K562; Table E, overnight culture): 2225 pg/mL | killing of SLAMF7^+ target cells (SLAMF7^+ MM.1S cells): killed SLAMF7^+ target cells; also recorded: specifically killed the SLAMF7^+ MM.1S cells | elimination of CAR^+ T cells, comparison of the two constructs (IC9-expressing T cells; IC9-Luc90-CD828Z compared with Luc90-CD828Z-IC9): slightly superior | elimination of CAR T cells when AP1903 was added to the T-cell cultures (IC9-expressing T cells): efficiently eliminated

Luc90-CD828Z: anti-SLAMF7 CAR (SEQ ID NO: 27): murine Luc90 scFv, human CD8a hinge and TM, CD28 and CD3ζ domains; tested as transduced T cells
IFN-gamma, target cells NGFR-K562 (NGFR-K562; Table B-2, SLAMF7-negative): 45 pg/mL | IFN-gamma, target cells NGFR-K562 (NGFR-K562; Table C): 26 pg/mL | IFN-gamma, target cells NGFR K562 0 ng/ml (NGFR-K562; Table D, soluble SLAMF7 added 0 ng/ml): 267 pg/mL | IFN-gamma, target cells NGFR K562 50 ng/ml (NGFR-K562; Table D, soluble SLAMF7 added 50 ng/ml): 223 pg/mL | IFN-gamma, target cells NGFR K562 200 ng/ml (NGFR-K562; Table D, soluble SLAMF7 added 200 ng/ml): 224 pg/mL | IFN-gamma, target cells SLAMF7-K562 (SLAMF7-K562; Table B-1, overnight culture): 16579 pg/mL | IFN-gamma, target cells SLAMF7-K562 (SLAMF7-K562; Table B-2, overnight culture): 20055 pg/mL | IFN-gamma, target cells SLAMF7-K562 (SLAMF7-K562; Table C): 15759 pg/mL | killing of SLAMF7^+ target cells (SLAMF7^+ MM.1S cells): killed SLAMF7^+ target cells | elimination of CAR T cells when AP1903 was added to the T-cell cultures (IC9-expressing T cells): efficiently eliminated

Reference: patent US11951131B2, “Anti-SLAMF7 chimeric antigen receptors” (The United States of America, as represented by the …, priority 2018, dated 2024)
